Test results reported in patent publication US8637525B2, “Compounds for the reduction of beta-amyloid production” (Bristol-Myers Squibb Company, priority 2009, dated 2014).

System: Aβ1-42 production
Test: Cellular assay for inhibition of Aβ1-42 production (H4 APP751 SWE clone 8.20)
Assay type: cell-based
Conditions: 19 h, H4 APP751 SWE clone 8.20 cells, 19 h incubation; class symbols; read-out: Activity Rating (Aβ42 cellular IC50)
Outline: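 Cells incubate with compound for 19 h (37 °C, 5% CO2), the plate is briefly spun, and antibody mix is added straight to the wells: Wallac-conjugated 565 against the Aβ42 C-terminal neoepitope and APC-conjugated 26D6 against the Aβ N-terminus. After overnight sealing at 4 °C, signal is counted and IC50 fitted.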

Row | SMILES | IC50
1 | CNc1nc(Nc2ccc(-n3cnc(Cl)c3)c(OC)c2)nc2c1C(O)CC2c1ccccc1 (stereo not shown) [Example 202, 2-(4-(4-chloro-1H-imidazol-1-yl)-3-methoxyphenylamino)-4-(methylamino)-7-phenyl-6,7-dihydro-5H-cyclopenta[d]pyrimidin-5-ol] | 0.0015 to 0.0099 µM
2 | COc1cc(Nc2nc3c(c(N4CCC5(C4)OCCO5)n2)CCC3c2ccccc2)ccc1-n1cnc(Cl)c1 (stereo not shown) [Example 205, N-(4-(4-chloro-1H-imidazol-1-yl)-3-methoxyphenyl)-7-phenyl-4-(1,4-dioxa-7-azaspiro[4.4]nonan-7-yl)-6,7-dihydro-5H-cyclopenta[d]pyrimidin-2-amine] | 0.01 to 0.1 µM
3 | CNc1nc(Nc2ccc(C#N)cc2)nc2c1CN(S(C)(=O)=O)CC2c1ccc(F)cc1 (stereo not shown) [Example 207, 4-(8-(4-fluorophenyl)-4-(methylamino)-6-(methylsulfonyl)-5,6,7,8-tetrahydropyrido[4,3-d]pyrimidin-2-ylamino)benzonitrile] | 0.1 to 1 µM
4 | CNc1nc(Nc2ccc(-n3cnc(C(F)F)c3)c(OC)c2)nc2c1CCC2c1ccc(F)cc1 (stereo not shown) [Example 208, N2-(4-(4-(difluoromethyl)-1H-imidazol-1-yl)-3-methoxyphenyl)-7-(4-fluorophenyl)-N4-methyl-6,7-dihydro-5H-cyclopenta[d]pyrimidine-2,4-diamine] | 0.01 to 0.1 µM
5 | CNc1nc(Nc2ccc(-c3cnn(C)c3)c(OC)c2)nc2c1CCC2c1ccccc1 (stereo not shown) [Example 209, N2-(3-methoxy-4-(1-methyl-1H-pyrazol-4-yl)phenyl)-N4-methyl-7-phenyl-6,7-dihydro-5H-cyclopenta[d]pyrimidine-2,4-diamine] | 0.0015 to 0.0099 µM
6 | COc1cc(Nc2nc(NS(C)(=O)=O)c3c(n2)C(c2ccccc2)CC3)ccc1-n1cnc(Cl)c1 (stereo not shown) [Example 211, N-(2-(4-(4-chloro-1H-imidazol-1-yl)-3-methoxyphenylamino)-7-phenyl-6,7-dihydro-5H-cyclopenta[d]pyrimidin-4-yl)-N-methanesulfonamide] | 0.0015 to 0.0099 µM
7 | CNc1nc(Nc2ccnc(C)c2)nc2c1CCC2c1ccccc1 (stereo not shown) [Example 216, N4-methyl-N2-(2-methylpyridin-4-yl)-7-phenyl-6,7-dihydro-5H-cyclopenta[d]pyrimidine-2,4-diamine] | > 1 µM
8 | CNc1nc(Nc2cccc(OC)c2)nc2c1CCC2c1ccccc1 (stereo not shown) [Example 217, N2-(3-methoxyphenyl)-N4-methyl-7-phenyl-6,7-dihydro-5H-cyclopenta[d]pyrimidine-2,4-diamine] | > 1 µM
9 | CNc1nc(Nc2cc(F)cc(F)c2)nc2c1CCC2c1ccccc1 (stereo not shown) [Example 219, N2-(3,5-difluorophenyl)-N4-methyl-7-phenyl-6,7-dihydro-5H-cyclopenta[d]pyrimidine-2,4-diamine] | > 1 µM
10 | CNc1nc(Nc2ccc(Br)cc2OC)nc2c1CCC2c1ccccc1 (stereo not shown) [Example 221, N2-(4-bromo-2-methoxyphenyl)-N4-methyl-7-phenyl-6,7-dihydro-5H-cyclopenta[d]pyrimidine-2,4-diamine] | > 1 µM
11 | CNc1nc(Nc2ccc(F)c(OC)c2)nc2c1CCC2c1ccccc1 (stereo not shown) [Example 222, N2-(4-fluoro-3-methoxyphenyl)-N4-methyl-7-phenyl-6,7-dihydro-5H-cyclopenta[d]pyrimidine-2,4-diamine] | > 1 µM

Now from value to molecule:

Row | IC50 | SMILES
12 | 0.01 to 0.1 µM | CNc1nc(Nc2ccc(-n3cnc(Cl)c3)c(OC)c2)nc2c1/C(=N/OC)CC2c1ccccc1 (stereo not shown) [Example 201B, (E)-2-(4-(4-chloro-1H-imidazol-1-yl)-3-methoxyphenylamino)-4-(methylamino)-7-phenyl-6,7-dihydro-5H-cyclopenta[d]pyrimidin-5-one O-methyl oxime]
13 | 0.1 to 1 µM | CNc1nc(Nc2ccc(-n3cnc(C#N)c3)c(OC)c2)nc2c1CCC2c1ccccc1 (stereo not shown) [Example 204B, 1-(2-methoxy-4-(4-(methylamino)-7-phenyl-6,7-dihydro-5H-cyclopenta[d]pyrimidin-2-ylamino)phenyl)-1H-imidazole-4-carbonitrile]
14 | > 1 µM | Cc1ccc(C(C)C)cc1Nc1nc(Nc2ccc(C#N)cc2)nc2c1CCC2c1ccccc1 (stereo not shown) [Example 215A, 4-(4-(5-isopropyl-2-methylphenylamino)-7-phenyl-6,7-dihydro-5H-cyclopenta[d]pyrimidin-2-ylamino)benzonitrile]

Same assay, conditions: 19 h, H4 APP751 SWE clone 8.20 cells, 19 h incubation; read-out: Activity Rating (Aβ42 cellular IC50), numeric value

Row | IC50 | SMILES
15 | 0.0053 µM | CNc1nc(Nc2ccc(-n3cnc(Cl)c3)c(OC)c2)nc2c1/C(=N/OC)CC2c1ccccc1 (stereo not shown) [Example 201, (E)-2-(4-(4-chloro-1H-imidazol-1-yl)-3-methoxyphenylamino)-4-(methylamino)-7-phenyl-6,7-dihydro-5H-cyclopenta[d]pyrimidin-5-one O-methyl oxime]
16 | 0.019 µM | CNc1nc(Nc2ccc(-n3cnc(Cl)c3)c(OC)c2)nc2c1CCCC2c1ccccc1 (stereo not shown) [Example 203, N2-(4-(4-chloro-1H-imidazol-1-yl)-3-methoxyphenyl)-N4-methyl-8-phenyl-5,6,7,8-tetrahydroquinazoline-2,4-diamine]
17 | 0.019 µM | CNc1nc(Nc2ccc(-n3cnc(C#N)c3)c(OC)c2)nc2c1CCC2c1ccccc1 (stereo not shown) [Example 204, 1-(2-methoxy-4-(4-(methylamino)-7-phenyl-6,7-dihydro-5H-cyclopenta[d]pyrimidin-2-ylamino)phenyl)-1H-imidazole-4-carbonitrile]
18 | 0.015 µM | COc1cc(Nc2nc3c(c(N4CCC(=O)C4)n2)CCC3c2ccccc2)ccc1-n1cnc(Cl)c1 (stereo not shown) [Example 206, 1-(2-(4-(4-chloro-1H-imidazol-1-yl)-3-methoxyphenylamino)-7-phenyl-6,7-dihydro-5H-cyclopenta[d]pyrimidin-4-yl)pyrrolidin-3-one]
19 | 0.061 µM | COc1cc(Nc2nc3c(c(N(C)S(C)(=O)=O)n2)CCC3c2ccccc2)ccc1-n1cnc(Cl)c1 (stereo not shown) [Example 210, N-(2-(4-(4-chloro-1H-imidazol-1-yl)-3-methoxyphenylamino)-7-phenyl-6,7-dihydro-5H-cyclopenta[d]pyrimidin-4-yl)-N-methylmethanesulfonamide]
20 | 0.033 µM | COc1cc(Nc2nc3c(c(N(C)C(C)=O)n2)CCC3c2ccccc2)ccc1-n1cnc(Cl)c1 (stereo not shown) [Example 212, N-(2-(4-(4-chloro-1H-imidazol-1-yl)-3-methoxyphenylamino)-7-phenyl-6,7-dihydro-5H-cyclopenta[d]pyrimidin-4-yl)-N-methylacetamide]
21 | 0.077 µM | COc1cc(Nc2nc(Nc3cc(C(C)C)ccc3C)c3c(n2)C(c2ccccc2)CC3)ccc1-n1cnc(Cl)c1 (stereo not shown) [Example 214, N2-(4-(4-chloro-1H-imidazol-1-yl)-3-methoxyphenyl)-N4-(5-isopropyl-2-methylphenyl)-7-phenyl-6,7-dihydro-5H-cyclopenta[d]pyrimidine-2,4-diamine]
22 | 0.173 µM | Cc1ccc(C(C)C)cc1Nc1nc(Nc2ccc(C#N)cc2)nc2c1CCC2c1ccccc1 (stereo not shown) [Example 215B, 4-(4-(5-isopropyl-2-methylphenylamino)-7-phenyl-6,7-dihydro-5H-cyclopenta[d]pyrimidin-2-ylamino)benzonitrile]
23 | 3.7 µM | CNc1nc(Nc2ccc(F)cc2)nc2c1CCC2c1ccccc1 (stereo not shown) [Example 218, N2-(4-fluorophenyl)-N4-methyl-7-phenyl-6,7-dihydro-5H-cyclopenta[d]pyrimidine-2,4-diamine]
24 | 0.55 µM | CNc1nc(Nc2ccc(Cl)c(OC)c2)nc2c1CCC2c1ccccc1 (stereo not shown) [Example 220, N2-(4-chloro-3-methoxyphenyl)-N4-methyl-7-phenyl-6,7-dihydro-5H-cyclopenta[d]pyrimidine-2,4-diamine]
25 | 11 µM | CNc1nc(Nc2cncnc2)nc2c1CCC2c1ccccc1 (stereo not shown) [Example 223, N4-methyl-7-phenyl-N2-(pyrimidin-5-yl)-6,7-dihydro-5H-cyclopenta[d]pyrimidine-2,4-diamine]

Same assay, conditions: H4 APP751 SWE clone 8.20 cells, 19 h incubation; class symbols; read-out: Activity Rating (Aβ42 cellular IC50)

Row | IC50 | SMILES
26 | 0.01 to 0.1 µM | CNc1nc(Nc2ccc(-n3ncnc3C)c(OC)c2)nc2c1CN(C)CC2c1ccc(F)cc1 (stereo not shown) [Example 199, 8-(4-fluorophenyl)-N2-(3-methoxy-4-(5-methyl-1H-1,2,4-triazol-1-yl)phenyl)-N4,6-dimethyl-5,6,7,8-tetrahydropyrido[4,3-d]pyrimidine-2,4-diamine]
27 | 0.1 to 1 µM | CNc1nc(Nc2ccc(-n3ncnc3C)c(OC)c2)nc2c1CN(C)CC2c1ccc(F)cc1 (stereo not shown) [Example 199A, 8-(4-fluorophenyl)-N2-(3-methoxy-4-(5-methyl-1H-1,2,4-triazol-1-yl)phenyl)-N4,6-dimethyl-5,6,7,8-tetrahydropyrido[4,3-d]pyrimidine-2,4-diamine]
28 | 0.0015 to 0.0099 µM | CNc1nc(Nc2ccc(-n3ncnc3C)c(OC)c2)nc2c1CN(C)CC2c1ccc(F)cc1 (stereo not shown) [Example 199B, 8-(4-fluorophenyl)-N2-(3-methoxy-4-(5-methyl-1H-1,2,4-triazol-1-yl)phenyl)-N4,6-dimethyl-5,6,7,8-tetrahydropyrido[4,3-d]pyrimidine-2,4-diamine]
29 | 0.0015 to 0.0099 µM | CNc1nc(Nc2ccc(-n3cnc(Cl)c3)c(OC)c2)nc2c1CCCC2c1ccccc1 (stereo not shown) [Example 203A, N2-(4-(4-chloro-1H-imidazol-1-yl)-3-methoxyphenyl)-N4-methyl-8-phenyl-5,6,7,8-tetrahydroquinazoline-2,4-diamine]
30 | 0.01 to 0.1 µM | CNc1nc(Nc2ccc(-n3cnc(Cl)c3)c(OC)c2)nc2c1CCCC2c1ccccc1 (stereo not shown) [Example 203B, N2-(4-(4-chloro-1H-imidazol-1-yl)-3-methoxyphenyl)-N4-methyl-8-phenyl-5,6,7,8-tetrahydroquinazoline-2,4-diamine]

Same assay, conditions: H4 APP751 SWE clone 8.20 cells, 19 h incubation; read-out: Activity Rating (Aβ42 cellular IC50), numeric value

Row | IC50 | SMILES
31 | 0.01 µM | CNc1nc(Nc2ccc(-n3cnc(Cl)c3)c(OC)c2)nc2c1/C(=N/OC)CC2c1ccccc1 (stereo not shown) [Example 201A, (E)-2-(4-(4-chloro-1H-imidazol-1-yl)-3-methoxyphenylamino)-4-(methylamino)-7-phenyl-6,7-dihydro-5H-cyclopenta[d]pyrimidin-5-one O-methyl oxime]
